Assay in all cases: Greenhouse post-emergence weed control, percent injury vs untreated control
Conditions in all cases: 504 h

Assay [1] relates to Amaranthus Palmerii (AMAPA). The format is in vivo, Amaranthus palmeri. Here is the method: (§1) Glufosinate was used as a commercial SL formulation containing 280 g ai/l of glufosinate (Liberty 280 SL, BASF). While the PPO herbicide Spartan containing 480 g ai/l sulfentrazone was used (Spartan 480 SC, FMC) formulation. • The evaluation for plant injury or damage caused by the chemical compositions was carried out using a scale from 0-100% when compared with the untreated control plants. Here, 0 means no damage and 100 means complete destruction of the plants.
(§2) 22., E=X+Y−(X*Y/100), where • X=effect in percent using herbicide A at an application rate of a; • Y=effect in percent using herbicide B at an application rate of b; • E=expected effect (in %) of A+B at application rates a+b.
(§3) The value E corresponds to the effect (plant damage or injury) which is to be expected if the activity of the individual compounds is just additive. If the observed effect is higher than the value E calculated according to Colby, a synergistic effect is present.
Seedlings of Palmer amaranth (Amaranthus palmeri; AMAPA), common waterhemp (Amaranthuis tameriscinus; AMATA), and barnyardgrass (Echinochloa crus-galli; ECHCG) were treated with postemergence applications of either glufosinate at 246 g ai/ha, sulfentrazone at 4.2 or 42 g ai/ha, or the combination of glufosinate (246 g ai/ha) and sulfentrazone (4.2, 42 g ai/ha), respectively, when they were 5-10 cm in height. […]

Assay [2] concerns Echinochloa crus-galli (ECHCG). The format is in vivo. The procedure:
as §1, §2, §3
(§4) Seedlings of Palmer amaranth (Amaranthus palmeri; AMAPA), common waterhemp (Amaranthuis tameriscinus; AMATA), and barnyardgrass (Echinochloa crus-galli; ECHCG) were treated with postemergence applications of either glufosinate at 246 g ai/ha, sulfentrazone at 4.2 or 42 g ai/ha, or the combination of glufosinate (246 g ai/ha) and sulfentrazone (4.2, 42 g ai/ha), respectively, when they were 5-10 cm in height. All glufosinate treatments contained 1% (w/v) ammonium sulfate and solo sulfentrazone treatments contained 1% (v/v) MSO surfactant. Plants were placed in a completely randomized design with four replications per treatment. Percent injury data was collected 21 days after treatment (DAT).

Assay [3] concerns Amaranthus tamariscinus (AMATA). The format is in vivo. Here is the method:
as §1, §2, §3, §4

Setting [4] is: read-out: Solo Glufosinate (246 g ai/ha) % activity.

With `CP(=O)(O)CCC(N)C(=O)O` (racemic) [Glufosinate, (2RS)-2-amino-4-[hydroxy(methyl)phosphinoyl]butyric acid], the inhibition at 246 g/ha in assay [1] (setting [4]) is 79%; in assay [2] (setting [4]), 57%; in assay [3] (setting [4]) it was 79%.
On to `Cc1nn(-c2cc(NS(C)(=O)=O)c(Cl)cc2Cl)c(=O)n1C(F)F` [Sulfentrazone, sulfentrazone], for which the inhibition at 4.2 g/ha in assay [1] (AMAPA, 4.2 g ai/ha, 1% (v/v) MSO, 21 DAT, 0 = no damage, 100 = complete destruction, read-out: Solo Sulfentrazone (4.2 g ai/ha) % activity) amounted to 20%. The inhibition at 42 g/ha was 23% in assay [2] (ECHCG, 42 g ai/ha, 1% (v/v) MSO, 21 DAT, read-out: Solo Sulfentrazone (42 g ai/ha) % activity) and 33% in assay [3] (AMATA, 42 g ai/ha, 1% (v/v) MSO, 21 DAT, read-out: Solo Sulfentrazone (42 g ai/ha) % activity).

The values are drawn from US20230076646A1, “HERBICIDE COMBINATIONS COMPRISING GLUFOSINATE AND SULFENTRAZONE” (BASF SE, priority 2020, published 2023).
